{"source": "paper PMC10046369", "about": "“Low-Affinity/High-Selectivity Dopamine Transport Inhibition Sufficient to Rescue Cognitive Functions in the Aging Rat” (Biomolecules, 2023)", "key": {"[1]": {"target": "T1, human dopamine transporter (hDAT) (Homo sapiens, UniProt Q01959)", "T1 construct": "gene SLC6A3", "assay": "radioligand competition binding ([3H]BTCP), hDAT expressed in CHO cells", "type": "cell-based"}, "B2": {"target": "T2, B2 (Homo sapiens, UniProt P30411)", "T2 construct": "gene BDKRB2", "assay": "cell-based", "set-up": "Eurofins Cerep functional GPCR screen, antagonist mode, inhibition of control agonist response", "details": "read-out: % Inhibition of Control Agonist Response, Mean"}, "CXCR3": {"target": "CXCR3 (Homo sapiens, UniProt P49682)", "assay": "cell-based", "set-up": "Eurofins Cerep functional GPCR screen, antagonist mode, inhibition of control agonist response", "details": "read-out: % Inhibition of Control Agonist Response, Mean"}, "CXCR6": {"target": "CXCR6 (Homo sapiens, UniProt O00574)", "sequence (O00574 whole entry)": "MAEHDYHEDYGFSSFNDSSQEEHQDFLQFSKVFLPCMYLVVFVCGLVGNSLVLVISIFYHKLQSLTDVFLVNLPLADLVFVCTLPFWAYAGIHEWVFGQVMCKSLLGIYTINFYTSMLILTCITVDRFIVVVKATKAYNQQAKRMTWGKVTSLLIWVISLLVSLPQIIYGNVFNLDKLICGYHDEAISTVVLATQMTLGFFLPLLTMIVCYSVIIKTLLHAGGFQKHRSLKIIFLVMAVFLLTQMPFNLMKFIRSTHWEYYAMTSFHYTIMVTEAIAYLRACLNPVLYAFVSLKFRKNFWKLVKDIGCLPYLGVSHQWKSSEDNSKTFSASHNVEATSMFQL", "assay": "cell-based", "set-up": "Eurofins Cerep functional GPCR screen, antagonist mode, inhibition of control agonist response", "details": "read-out: % Inhibition of Control Agonist Response, Mean"}, "β2": {"target": "T3, β2 (Homo sapiens, UniProt P07550)", "T3 construct": "gene ADRB2", "assay": "cell-based", "set-up": "Eurofins Cerep functional GPCR screen, antagonist mode, inhibition of control agonist response", "details": "read-out: % Inhibition of Control Agonist Response, Mean"}, "BB1": {"target": "T4, BB1 (Homo sapiens, UniProt P28336)", "T4 construct": "gene NMBR", "assay": "cell-based", "set-up": "Eurofins Cerep functional GPCR screen, antagonist mode, inhibition of control agonist response", "details": "read-out: % Inhibition of Control Agonist Response, Mean"}, "D4.4": {"target": "T5, D4.4 (Homo sapiens, UniProt P21917)", "T5 construct": "gene DRD4; D4.4", "assay": "cell-based", "set-up": "Eurofins Cerep functional GPCR screen, antagonist mode, inhibition of control agonist response", "details": "read-out: % Inhibition of Control Agonist Response, Mean"}, "CCK2 (CCKB)": {"target": "T6, CCK2 (CCKB) (Homo sapiens, UniProt P32239)", "T6 construct": "gene CCKBR", "assay": "cell-based", "set-up": "Eurofins Cerep functional GPCR screen, antagonist mode, inhibition of control agonist response", "details": "read-out: % Inhibition of Control Agonist Response, Mean"}, "D2S": {"target": "T7, D2S (Homo sapiens, UniProt P14416)", "T7 construct": "gene DRD2; D2S short isoform", "assay": "cell-based", "set-up": "Eurofins Cerep functional GPCR screen, antagonist mode, inhibition of control agonist response", "details": "read-out: % Inhibition of Control Agonist Response, Mean"}, "GPR109A": {"target": "T8, GPR109A (Homo sapiens, UniProt Q8TDS4)", "T8 construct": "gene HCAR2", "assay": "cell-based", "set-up": "Eurofins Cerep functional GPCR screen, antagonist mode, inhibition of control agonist response", "details": "read-out: % Inhibition of Control Agonist Response, Mean"}, "MYLK": {"target": "MYLK (Homo sapiens, UniProt Q15746)", "sequence (Q15746 whole entry)": "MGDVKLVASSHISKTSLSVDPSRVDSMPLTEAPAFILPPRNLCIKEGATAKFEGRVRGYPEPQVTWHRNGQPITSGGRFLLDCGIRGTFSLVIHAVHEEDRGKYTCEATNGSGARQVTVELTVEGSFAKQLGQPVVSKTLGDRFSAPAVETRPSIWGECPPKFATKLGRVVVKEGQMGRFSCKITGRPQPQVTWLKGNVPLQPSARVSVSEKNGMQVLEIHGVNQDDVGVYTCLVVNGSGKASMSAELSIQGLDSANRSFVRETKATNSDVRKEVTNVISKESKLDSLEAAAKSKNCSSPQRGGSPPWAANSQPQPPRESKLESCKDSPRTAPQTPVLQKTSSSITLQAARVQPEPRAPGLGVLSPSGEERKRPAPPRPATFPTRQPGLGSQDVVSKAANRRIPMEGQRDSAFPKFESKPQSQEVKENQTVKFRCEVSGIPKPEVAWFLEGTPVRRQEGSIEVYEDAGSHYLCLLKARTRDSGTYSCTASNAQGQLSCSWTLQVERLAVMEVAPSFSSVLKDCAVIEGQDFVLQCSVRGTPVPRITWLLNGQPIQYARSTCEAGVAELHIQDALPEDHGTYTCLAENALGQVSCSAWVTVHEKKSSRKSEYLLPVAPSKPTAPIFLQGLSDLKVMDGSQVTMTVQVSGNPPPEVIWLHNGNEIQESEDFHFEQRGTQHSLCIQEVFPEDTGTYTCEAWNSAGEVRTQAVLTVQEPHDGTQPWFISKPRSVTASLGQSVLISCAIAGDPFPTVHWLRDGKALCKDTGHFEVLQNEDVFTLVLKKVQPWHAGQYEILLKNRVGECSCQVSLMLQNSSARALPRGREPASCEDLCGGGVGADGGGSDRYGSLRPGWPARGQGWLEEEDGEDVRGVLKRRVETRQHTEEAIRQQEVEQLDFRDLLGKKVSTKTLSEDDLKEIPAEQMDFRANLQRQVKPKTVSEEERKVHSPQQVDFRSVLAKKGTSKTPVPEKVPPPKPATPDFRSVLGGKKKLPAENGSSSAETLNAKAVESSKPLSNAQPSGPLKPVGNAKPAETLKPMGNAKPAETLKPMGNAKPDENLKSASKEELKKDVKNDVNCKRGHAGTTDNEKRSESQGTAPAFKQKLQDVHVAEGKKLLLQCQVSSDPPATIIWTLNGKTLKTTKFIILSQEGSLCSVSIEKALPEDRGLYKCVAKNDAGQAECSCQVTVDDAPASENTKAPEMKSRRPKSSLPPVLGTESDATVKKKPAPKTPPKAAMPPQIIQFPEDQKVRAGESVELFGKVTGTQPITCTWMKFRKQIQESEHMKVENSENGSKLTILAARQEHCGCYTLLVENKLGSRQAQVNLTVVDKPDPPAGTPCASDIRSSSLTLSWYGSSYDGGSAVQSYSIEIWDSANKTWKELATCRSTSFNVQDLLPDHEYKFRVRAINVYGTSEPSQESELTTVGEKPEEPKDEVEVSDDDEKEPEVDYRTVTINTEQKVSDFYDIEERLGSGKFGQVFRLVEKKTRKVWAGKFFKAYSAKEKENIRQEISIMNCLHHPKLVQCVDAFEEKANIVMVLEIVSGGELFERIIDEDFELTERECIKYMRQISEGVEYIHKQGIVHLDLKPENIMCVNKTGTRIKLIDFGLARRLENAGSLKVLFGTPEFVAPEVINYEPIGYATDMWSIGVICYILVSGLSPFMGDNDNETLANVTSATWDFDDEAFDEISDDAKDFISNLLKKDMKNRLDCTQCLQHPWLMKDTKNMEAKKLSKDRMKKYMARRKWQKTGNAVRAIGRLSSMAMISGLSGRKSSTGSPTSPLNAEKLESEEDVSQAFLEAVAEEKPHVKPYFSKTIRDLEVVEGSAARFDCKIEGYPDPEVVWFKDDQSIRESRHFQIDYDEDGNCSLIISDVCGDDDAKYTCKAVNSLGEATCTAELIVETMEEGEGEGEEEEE", "assay": "biochemical", "set-up": "KINOMEscan competition binding panel, per cent of control", "details": "read-out: %Ctrl @ 2800nM", "experimental": "(§1) A panel of binding assays covering 450 human kinases and disease-relevant mutations was performed by DiscoverX (KINOMEscan®, Freemont, CA, USA) according to the standard and validated protocol defined by the contractor. […] Kinase binding assays This study was outsourced to DiscoverX (KINOMEscan®, Freemont, CA, USA) and is compliant with the corresponding project BUY004-01-p-00001. […] Results are reported as percent control (% Ctrl), where lower numbers indicate stronger hits in the matrix on the following page(s). %Ctrl calculation: ((test compound signal-positive control signal) / (negative control signal – positive control signal)) x 100."}, "AMPK-alpha1": {"target": "T9, AMPK-alpha1 (Homo sapiens, UniProt Q13131)", "T9 construct": "gene PRKAA1", "assay": "biochemical", "set-up": "KINOMEscan competition binding panel, per cent of control", "details": "read-out: %Ctrl @ 2800nM", "experimental": "as §1"}, "CSNK1D": {"target": "CSNK1D (Homo sapiens, UniProt P48730)", "assay": "biochemical", "set-up": "KINOMEscan competition binding panel, per cent of control", "details": "read-out: %Ctrl @ 2800nM", "experimental": "as §1"}, "MAP4K4": {"target": "MAP4K4 (Homo sapiens, UniProt O95819)", "sequence (O95819 whole entry)": "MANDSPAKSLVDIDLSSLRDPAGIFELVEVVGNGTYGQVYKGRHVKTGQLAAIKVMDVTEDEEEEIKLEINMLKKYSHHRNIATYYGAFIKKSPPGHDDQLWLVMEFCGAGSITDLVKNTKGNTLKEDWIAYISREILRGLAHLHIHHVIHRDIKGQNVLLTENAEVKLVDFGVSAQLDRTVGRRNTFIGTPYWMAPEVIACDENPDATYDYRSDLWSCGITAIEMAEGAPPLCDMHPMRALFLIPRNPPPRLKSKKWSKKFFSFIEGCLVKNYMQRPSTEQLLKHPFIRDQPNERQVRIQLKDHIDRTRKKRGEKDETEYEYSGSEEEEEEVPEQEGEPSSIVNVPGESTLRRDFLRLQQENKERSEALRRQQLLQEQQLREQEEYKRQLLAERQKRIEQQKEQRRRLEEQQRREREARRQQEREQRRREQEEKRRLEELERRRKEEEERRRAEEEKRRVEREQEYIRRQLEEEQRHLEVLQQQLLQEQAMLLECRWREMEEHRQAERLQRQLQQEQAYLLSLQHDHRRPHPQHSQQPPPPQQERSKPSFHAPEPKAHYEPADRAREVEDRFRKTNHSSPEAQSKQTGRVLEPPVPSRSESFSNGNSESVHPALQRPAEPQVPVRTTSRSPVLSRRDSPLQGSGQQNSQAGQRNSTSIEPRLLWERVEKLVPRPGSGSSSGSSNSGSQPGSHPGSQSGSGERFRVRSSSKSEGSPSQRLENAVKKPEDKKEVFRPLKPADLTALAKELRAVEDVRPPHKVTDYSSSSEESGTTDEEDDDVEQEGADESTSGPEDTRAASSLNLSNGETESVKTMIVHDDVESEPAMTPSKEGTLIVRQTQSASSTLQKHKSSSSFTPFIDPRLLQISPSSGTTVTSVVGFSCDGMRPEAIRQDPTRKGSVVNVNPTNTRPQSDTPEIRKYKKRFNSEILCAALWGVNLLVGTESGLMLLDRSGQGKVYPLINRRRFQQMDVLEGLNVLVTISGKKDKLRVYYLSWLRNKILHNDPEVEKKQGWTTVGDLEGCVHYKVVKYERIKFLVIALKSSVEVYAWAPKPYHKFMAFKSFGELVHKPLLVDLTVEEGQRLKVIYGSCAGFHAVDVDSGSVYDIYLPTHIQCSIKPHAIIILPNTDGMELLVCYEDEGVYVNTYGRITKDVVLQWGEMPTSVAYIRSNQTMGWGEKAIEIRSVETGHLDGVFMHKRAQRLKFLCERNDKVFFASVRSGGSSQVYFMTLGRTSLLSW", "assay": "biochemical", "set-up": "KINOMEscan competition binding panel, per cent of control", "details": "read-out: %Ctrl @ 2800nM", "experimental": "as §1"}, "IKK-epsilon": {"target": "T10, IKK-epsilon (Homo sapiens, UniProt Q14164)", "T10 construct": "gene IKBKE", "assay": "biochemical", "set-up": "KINOMEscan competition binding panel, per cent of control", "details": "read-out: %Ctrl @ 2800nM", "experimental": "as §1"}, "BRAF": {"target": "BRAF (Homo sapiens, UniProt P15056)", "assay": "biochemical", "set-up": "KINOMEscan competition binding panel, per cent of control", "details": "read-out: %Ctrl @ 2800nM", "experimental": "as §1"}, "CDK9": {"target": "CDK9 (Homo sapiens, UniProt P50750)", "assay": "biochemical", "set-up": "KINOMEscan competition binding panel, per cent of control", "details": "read-out: %Ctrl @ 2800nM", "experimental": "as §1"}, "RIOK2": {"target": "RIOK2 (Homo sapiens, UniProt Q9BVS4)", "assay": "biochemical", "set-up": "KINOMEscan competition binding panel, per cent of control", "details": "read-out: %Ctrl @ 2800nM", "experimental": "as §1"}, "DCAMKL2": {"target": "T11, DCAMKL2 (Homo sapiens, UniProt Q8N568)", "T11 construct": "gene DCLK2", "assay": "biochemical", "set-up": "KINOMEscan competition binding panel, per cent of control", "details": "read-out: %Ctrl @ 2800nM", "experimental": "as §1"}, "NDR1": {"target": "T12, NDR1 (Homo sapiens, UniProt Q15208)", "T12 construct": "gene STK38", "assay": "biochemical", "set-up": "KINOMEscan competition binding panel, per cent of control", "details": "read-out: %Ctrl @ 2800nM", "experimental": "as §1"}, "TNIK": {"target": "TNIK (Homo sapiens, UniProt Q9UKE5)", "assay": "biochemical", "set-up": "KINOMEscan competition binding panel, per cent of control", "details": "read-out: %Ctrl @ 2800nM", "experimental": "as §1"}, "GSK3B": {"target": "GSK3B (Homo sapiens, UniProt P49841)", "assay": "biochemical", "set-up": "KINOMEscan competition binding panel, per cent of control", "details": "read-out: %Ctrl @ 2800nM", "experimental": "as §1"}, "MYO3B": {"target": "MYO3B (Homo sapiens, UniProt Q8WXR4)", "sequence (Q8WXR4 whole entry)": "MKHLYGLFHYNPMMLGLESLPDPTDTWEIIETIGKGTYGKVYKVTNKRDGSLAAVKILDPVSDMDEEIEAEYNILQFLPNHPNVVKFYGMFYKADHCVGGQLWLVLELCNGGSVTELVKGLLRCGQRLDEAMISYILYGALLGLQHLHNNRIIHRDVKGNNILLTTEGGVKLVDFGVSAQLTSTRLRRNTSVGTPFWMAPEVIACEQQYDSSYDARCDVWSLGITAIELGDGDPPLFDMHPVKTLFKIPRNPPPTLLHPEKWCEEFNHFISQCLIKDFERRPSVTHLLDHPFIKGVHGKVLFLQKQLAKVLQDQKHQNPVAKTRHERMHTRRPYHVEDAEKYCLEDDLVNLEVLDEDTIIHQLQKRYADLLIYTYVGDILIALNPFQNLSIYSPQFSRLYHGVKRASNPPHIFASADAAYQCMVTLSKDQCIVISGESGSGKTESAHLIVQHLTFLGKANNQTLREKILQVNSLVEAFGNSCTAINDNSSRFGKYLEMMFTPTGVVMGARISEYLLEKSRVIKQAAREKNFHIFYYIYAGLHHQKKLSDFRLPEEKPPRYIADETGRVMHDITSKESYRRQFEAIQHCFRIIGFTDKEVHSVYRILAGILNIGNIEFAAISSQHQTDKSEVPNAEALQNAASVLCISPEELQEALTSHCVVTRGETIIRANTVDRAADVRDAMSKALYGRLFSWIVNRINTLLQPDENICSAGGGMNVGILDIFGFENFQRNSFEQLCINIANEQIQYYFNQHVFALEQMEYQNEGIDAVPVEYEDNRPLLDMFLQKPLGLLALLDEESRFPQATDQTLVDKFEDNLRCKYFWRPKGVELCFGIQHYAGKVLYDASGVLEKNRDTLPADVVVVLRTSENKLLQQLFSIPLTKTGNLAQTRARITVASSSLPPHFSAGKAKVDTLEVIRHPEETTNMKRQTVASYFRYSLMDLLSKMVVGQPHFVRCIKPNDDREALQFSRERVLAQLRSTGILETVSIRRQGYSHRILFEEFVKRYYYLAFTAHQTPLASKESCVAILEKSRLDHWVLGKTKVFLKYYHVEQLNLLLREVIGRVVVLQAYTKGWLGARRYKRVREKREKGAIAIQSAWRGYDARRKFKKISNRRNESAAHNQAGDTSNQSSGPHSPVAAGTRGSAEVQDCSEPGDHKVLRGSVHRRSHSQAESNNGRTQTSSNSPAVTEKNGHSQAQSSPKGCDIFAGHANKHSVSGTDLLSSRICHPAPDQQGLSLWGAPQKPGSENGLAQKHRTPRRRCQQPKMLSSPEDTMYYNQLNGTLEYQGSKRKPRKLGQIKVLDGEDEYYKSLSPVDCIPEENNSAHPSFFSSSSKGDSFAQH", "assay": "biochemical", "set-up": "KINOMEscan competition binding panel, per cent of control", "details": "read-out: %Ctrl @ 2800nM", "experimental": "as §1"}, "[2]": {"target": "T13, ABL1(T315I)-phosphorylated (Homo sapiens, UniProt P00519, T315I)", "T13 construct": "phosphorylated", "assay": "biochemical", "set-up": "KINOMEscan competition binding panel, per cent of control", "details": "read-out: %Ctrl @ 2800nM", "experimental": "as §1"}, "PFPK5(P.falciparum)": {"target": "T14, PFPK5(P.falciparum) (Plasmodium falciparum, UniProt P61075)", "T14 construct": "gene CRK2", "T14 sequence (P61075 whole entry)": "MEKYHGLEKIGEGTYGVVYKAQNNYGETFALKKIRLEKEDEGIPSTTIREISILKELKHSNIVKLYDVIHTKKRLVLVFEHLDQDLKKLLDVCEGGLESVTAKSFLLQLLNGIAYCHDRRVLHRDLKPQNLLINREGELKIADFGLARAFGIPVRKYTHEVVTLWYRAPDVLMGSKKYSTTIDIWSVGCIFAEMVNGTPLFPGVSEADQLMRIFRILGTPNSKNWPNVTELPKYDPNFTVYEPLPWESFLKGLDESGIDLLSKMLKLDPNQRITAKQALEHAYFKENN", "assay": "biochemical", "set-up": "KINOMEscan competition binding panel, per cent of control", "details": "read-out: %Ctrl @ 2800nM"}}}
{"smiles": "[O-][S@@+](Cc1cncs1)C(c1ccccc1)c1ccccc1", "note": "[S-CE-123, (S)-5-((Benzhydrylsulfinyl)Methyl)Thiazole]", "values": [{"measurement": "Ki", "setting": "[1]", "value": 610, "unit": "nM"}, {"measurement": "inhibition at 2.8 µM", "setting": "B2", "value": -32.1, "unit": "%"}, {"measurement": "inhibition at 2.8 µM", "setting": "CXCR3", "value": -7.8, "unit": "%"}, {"measurement": "inhibition at 2.8 µM", "setting": "CXCR6", "value": -7.6, "unit": "%"}, {"measurement": "inhibition at 2.8 µM", "setting": "β2", "value": -1.2, "unit": "%"}, {"measurement": "inhibition at 2.8 µM", "setting": "BB1", "value": -10.5, "unit": "%"}, {"measurement": "inhibition at 2.8 µM", "setting": "D4.4", "value": -7.9, "unit": "%"}, {"measurement": "inhibition at 2.8 µM", "setting": "CCK2 (CCKB)", "value": -6.9, "unit": "%"}, {"measurement": "inhibition at 2.8 µM", "setting": "D2S", "value": 18.1, "unit": "%"}, {"measurement": "inhibition at 2.8 µM", "setting": "GPR109A", "value": -11.6, "unit": "%"}, {"measurement": "remaining binding at 2.8 µM", "setting": "MYLK", "value": 96, "unit": "%"}, {"measurement": "remaining binding at 2.8 µM", "setting": "AMPK-alpha1", "value": 92, "unit": "%"}, {"measurement": "remaining binding at 2.8 µM", "setting": "CSNK1D", "value": 100, "unit": "%"}, {"measurement": "remaining binding at 2.8 µM", "setting": "MAP4K4", "value": 100, "unit": "%"}, {"measurement": "remaining binding at 2.8 µM", "setting": "IKK-epsilon", "value": 98, "unit": "%"}, {"measurement": "remaining binding at 2.8 µM", "setting": "BRAF", "value": 100, "unit": "%"}, {"measurement": "remaining binding at 2.8 µM", "setting": "CDK9", "value": 92, "unit": "%"}, {"measurement": "remaining binding at 2.8 µM", "setting": "RIOK2", "value": 99, "unit": "%"}, {"measurement": "remaining binding at 2.8 µM", "setting": "DCAMKL2", "value": 97, "unit": "%"}, {"measurement": "remaining binding at 2.8 µM", "setting": "NDR1", "value": 83, "unit": "%"}, {"measurement": "remaining binding at 2.8 µM", "setting": "TNIK", "value": 89, "unit": "%"}, {"measurement": "remaining binding at 2.8 µM", "setting": "GSK3B", "value": 92, "unit": "%"}, {"measurement": "remaining binding at 2.8 µM", "setting": "MYO3B", "value": 52, "unit": "%"}, {"measurement": "remaining binding at 2.8 µM", "setting": "[2]", "value": 98, "unit": "%"}, {"measurement": "remaining binding at 2.8 µM", "setting": "PFPK5(P.falciparum)", "value": 84, "unit": "%"}]}
